Key:
[1] = test system: HCV replicon (Huh-7 luc/neo, NS3-NS5B of HCV type 1b); test: HCV replicon assay (Huh-Luc, luciferase readout); format: cell-based; details: Hepatitis C virus, Huh-7, 72 h, Huh-Luc cells, HCV type 1b replicon, three days incubation, luciferase activity
Source text: The compounds of formula I were examined for activity in the inhibition of HCV RNA replication in a cellular assay aimed at identifying compounds that inhibit a HCV functional cellular replicating cell line, also known as HCV replicons. The cellular assay was based on a bicistronic expression construct, as described by Lohmann et al. (1999), Science vol. 285 pp. 110-113 with modifications described by Krieger et al. (2001), Journal of Virology 75: 4614-4624, in a multi-target screening strategy.
The assay utilized the stably transfected cell line Huh-7 luc/neo (hereafter referred to as Huh-Luc). This cell line harbors an RNA encoding a bicistronic expression construct comprising the wild type NS3-NS5B regions of HCV type 1b translated from an Internal Ribosome Entry Site (IRES) from encephalomyocarditis virus (EMCV), preceded by a reporter portion (FfL-luciferase), and a selectable marker portion (neoR, neomycine phosphotransferase). The construct is bordered by 5′ and 3′ NTRs (non-translated regions) from HCV type 1b. Continued culture of the replicon cells in the presence of G418 (neo^R) is dependent on the replication of the HCV RNA. The stably transfected replicon cells that express HCV RNA, which replicates autonomously and to high levels, encoding inter alia luciferase, were used for screening the antiviral compounds.
The replicon cells were plated in 384 well plates in the presence of the test and control compounds which were added in various concentrations. Following an incubation of three days, HCV replication was measured by assaying luciferase activity (using standard luciferase assay substrates and reagents and a Perkin Elmer ViewLux™ ultraHTS microplate imager). Replicon cells in the control cultures have high luciferase expression in the absence of any inhibitor. The inhibitory activity of the compound on luciferase activity was monitored on the Huh-Luc cells, enabling a dose-response curve for each test compound. EC50 values were then calculated, which value represents the amount of the compound required to decrease the level of detected luciferase activity by 50%, or more specifically, the ability of the genetically linked HCV replicon RNA to replicate.

[2] = test system: wild type human immunodeficiency virus (HIV) strain IIIB; test: HIV assay in MT4 LTR-EGFP cells; format: cell-based, HIV-1; details: Human immunodeficiency virus 1, IIIB, 72 h, three days after infection
Description: (§1) Compounds of the invention were tested for their potency against wild type human immunodeficiency virus (HIV). Antiviral activity was evaluated using a cellular assay performed according to the following procedure. The human T-cell line MT4 was engineered with Green Fluorescent Protein (GFP) and a HIV-specific promoter, HIV-1 long terminal repeat (LTR). This cell line, designated MT4 LTR-EGFP, can be used for the in vitro evaluation of anti-HIV activity of investigational compounds. In HIV-1 infected cells, the Tat protein is produced, which upregulates the LTR promotor and eventually leads to stimulation of the GFP reporter production, allowing to measure ongoing HIV-infection fluorometrically. Effective concentration values such as 50% effective concentration (EC50) can be determined and are usually expressed in μM. An EC50 value is defined as the concentration of test compound that reduces the fluorescence of HIV-infected cells by 50%. Monitoring of HIV-1 infection was done using a scanning microscope. Image analysis allows very sensitive detection of viral infection. Measurements were done before cell necrosis, which usually takes place about five days after infection, in particular measurements were performed three days after infection. The column IIIB in the table list the EC50 values against the wild type strain IIIB.

[3] = Cellular toxicity in Huh7-CMV-Luc replicon assay; format: cell-based; details: human, Huh7-CMV-Luc cells, three days incubation, Luc activity; read-out: CC50 (μM) (Huh-7)
Description: Cellular toxicity was determined in the Huh7-CMV-Luc replicon assay. Replicon cells (2500 cells/well), stably transformed with a luciferase reporter gene under control of the cytomegalovirus (CMV) constitutive promotor, were cultured in the presence or absence of test compound concentrations. After three days of incubation at 37° C. in a humidified 5% CO2 atmosphere, cell proliferation was quantified by measuring the Luc activity, and expressed as CC50 values (cytotoxicity, 50% inhibitory concentration of cell growth). Tests were performed in 384-well plates.

[4] = Cellular toxicity in the HIV cell-line (MT-4); format: cell-based, human; details: human
Description: as §1
Also the HIV activity is given (EC50 HIV (μM)) and the cellular toxicity in the HIV cell-line (CC50 (μM) (MT-4)).

| Structure (SMILES) | EC50 [1] [µM] | EC50 [2] [µM] | CC50 at 3 days [3] [µM] | CC50 [4] [µM] |
| --- | --- | --- | --- | --- |
| COC(=O)C(C)(C)NP(=O)(OC[C@H]1O[C@@H](n2ccc(=O)[nH]c2=O)C2(CC2)[C@@H]1O)Oc1ccccc1 (some centres unmarked) [Compound 27] | 91.4 | > 98 | > 98 | > 98 |
| C[C@H](NP(=O)(OC[C@H]1O[C@@H](n2ccc(=O)[nH]c2=O)C2(CC2)[C@@H]1O)Oc1ccc(C(C)(C)C)cc1)C(=O)OCc1ccccc1 (some centres unmarked) [Compound 19] | 7.2 | > 32 | > 32 | > 32 |
| C[C@H](NP(=O)(OC[C@H]1O[C@@H](n2ccc(=O)[nH]c2=O)C2(CC2)[C@@H]1O)Oc1ccccc1)C(=O)OC(C)(C)C (some centres unmarked) [Compound 30] | > 98 | > 98 | > 98 | > 98 |
| C[C@H](NP(=O)(OC[C@H]1O[C@@H](n2ccc(=O)[nH]c2=O)C2(CC2)[C@@H]1O)Oc1ccccc1)C(=O)OCC(C)(C)C (some centres unmarked) [Compound 11] | 2.8 | > 98 | > 98 | > 98 |
| CCOC(=O)C1(NP(=O)(OC[C@H]2O[C@@H](n3ccc(=O)[nH]c3=O)C3(CC3)[C@@H]2O)Oc2ccc(Cl)cc2)CCC1 (some centres unmarked) [Compound 26] | 73.7 | > 98 | > 98 | > 98 |
| CCCCCCCCOC(=O)[C@H](C)NP(=O)(OC[C@H]1O[C@@H](n2ccc(=O)[nH]c2=O)C2(CC2)[C@@H]1O)Oc1ccc(Cl)cc1 (some centres unmarked) [Compound 23] | 11.2 | > 98 | > 32 | > 30 |
| Cc1ccc(C(C)C)cc1OP(=O)(N[C@@H](C)C(=O)OCc1ccccc1)OC[C@H]1O[C@@H](n2ccc(=O)[nH]c2=O)C2(CC2)[C@@H]1O (some centres unmarked) [Compound 25] | 23.1 | > 98 | > 32 | 23 |
| CC(C)OC(=O)[C@H](C)NP(=O)(OC[C@H]1O[C@@H](n2ccc(=O)[nH]c2=O)C2(CC2)[C@@H]1O)Oc1ccccc1 (some centres unmarked) [Compound 3] | 9.6 | > 98 | > 98 | > 98 |
| CCCCOC(=O)[C@H](C)NP(=O)(OC[C@H]1O[C@@H](n2ccc(=O)[nH]c2=O)C2(CC2)[C@@H]1O)Oc1ccccc1 (some centres unmarked) [Compound 12] | 3.1 | > 98 | > 98 | > 98 |
| CC[C@H](NP(=O)(OC[C@H]1O[C@@H](n2ccc(=O)[nH]c2=O)C2(CC2)[C@@H]1O)Oc1ccccc1)C(=O)OC(C)C (some centres unmarked) [Compound 31] | > 98 | > 95 | > 98 | > 98 |
| O=C(CNP(=O)(OC[C@H]1O[C@@H](n2ccc(=O)[nH]c2=O)C2(CC2)[C@@H]1O)Oc1cccc2ccccc12)OCc1ccccc1 (some centres unmarked) [Compound 6] | 16.5 | > 90 | > 98 | > 98 |
| CCOC(=O)[C@H](C)NP(=O)(OC[C@H]1O[C@@H](n2ccc(=O)[nH]c2=O)C2(CC2)[C@@H]1O)Oc1ccccc1 (some centres unmarked) [Compound 5] | 9.2 | > 90 | > 98 | > 98 |
| CC(C)COC(=O)[C@H](C)NP(=O)(OC[C@H]1O[C@@H](n2ccc(=O)[nH]c2=O)C2(CC2)[C@@H]1O)Oc1ccccc1 (some centres unmarked) [Compound 13] | 3.2 | > 98 | > 98 | > 98 |
| CCOC(=O)c1ccccc1OP(=O)(N[C@@H](C)C(=O)OCc1ccccc1)OC[C@H]1O[C@@H](n2ccc(=O)[nH]c2=O)C2(CC2)[C@@H]1O (some centres unmarked) [Compound 34] | 11 | – | > 98 | – |
| Cc1cc(OP(=O)(N[C@@H](C)C(=O)OCc2ccccc2)OC[C@H]2O[C@@H](n3ccc(=O)[nH]c3=O)C3(CC3)[C@@H]2O)c(C(C)C)cc1Cl (some centres unmarked) [Compound 2] | 14.3 | > 50 | > 32 | > 32 |
| CCCCOC(=O)[C@H](C)NP(=O)(OC[C@H]1O[C@@H](n2ccc(=O)[nH]c2=O)C2(CC2)[C@@H]1O)Oc1cccc2ccccc12 (some centres unmarked) [Compound 15] | 3.6 | > 60 | > 98 | > 60 |
| CCCC(CCC)COC(=O)[C@H](C)NP(=O)(OC[C@H]1O[C@@H](n2ccc(=O)[nH]c2=O)C2(CC2)[C@@H]1O)Oc1ccccc1 (some centres unmarked) [Compound 10] | 2.8 | > 60 | > 32 | 29 |
| CCC(C)OC(=O)[C@H](C)NP(=O)(OC[C@H]1O[C@@H](n2ccc(=O)[nH]c2=O)C2(CC2)[C@@H]1O)Oc1ccccc1 (some centres unmarked) [Compound 24] | 12.4 | > 98 | > 98 | > 98 |
| C[C@H](NP(=O)(OC[C@H]1O[C@@H](n2ccc(=O)[nH]c2=O)C2(CC2)[C@@H]1O)Oc1cccc2ccccc12)C(=O)OCc1ccccc1 (some centres unmarked) [Compound 1] | 2.8 | > 50 | > 98 | > 32 |
| CC(C)OC(=O)C(C)(C)NP(=O)(OC[C@H]1O[C@@H](n2ccc(=O)[nH]c2=O)C2(CC2)[C@@H]1O)Oc1ccccc1 (some centres unmarked) [Compound 28] | > 98 | > 98 | > 98 | > 98 |
| C[C@H](NP(=O)(OC[C@H]1O[C@@H](n2ccc(=O)[nH]c2=O)C2(CC2)[C@@H]1O)Oc1ccccc1)C(=O)OC1CCCC1 (some centres unmarked) [Compound 14] | 3.3 | > 98 | > 98 | > 98 |
| C[C@H](NP(=O)(OC[C@H]1O[C@@H](n2ccc(=O)[nH]c2=O)C2(CC2)[C@@H]1O)Oc1ccc(Cl)cc1)C(=O)OCc1ccccc1 (some centres unmarked) [Compound 7] | 6.1 | > 90 | > 90 | > 64 |
| CC(C)(NP(=O)(OC[C@H]1O[C@@H](n2ccc(=O)[nH]c2=O)C2(CC2)[C@@H]1O)Oc1ccccc1)C(=O)OCc1ccccc1 (some centres unmarked) [Compound 4] | 23.9 | > 98 | > 98 | > 98 |
| CCOC(=O)C1(NP(=O)(OC[C@H]2O[C@@H](n3ccc(=O)[nH]c3=O)C3(CC3)[C@@H]2O)Oc2ccc(Cl)cc2)CC1 (some centres unmarked) [Compound 33] | > 98 | > 98 | > 98 | > 98 |
| CCOC(=O)[C@H](Cc1ccccc1)NP(=O)(OC[C@H]1O[C@@H](n2ccc(=O)[nH]c2=O)C2(CC2)[C@@H]1O)Oc1ccccc1 (some centres unmarked) [Compound 17] | 4.4 | > 98 | > 98 | > 98 |
| C[C@H](NP(=O)(OC[C@H]1O[C@@H](n2ccc(=O)[nH]c2=O)C2(CC2)[C@@H]1O)Oc1ccc2c(ccn2C(=O)OC(C)(C)C)c1)C(=O)OCc1ccccc1 (some centres unmarked) [Compound 16] | 4.2 | > 98 | > 32 | > 32 |
| CCOC(=O)C1(NP(=O)(OC[C@H]2O[C@@H](n3ccc(=O)[nH]c3=O)C3(CC3)[C@@H]2O)Oc2ccccc2)CCC1 (some centres unmarked) [Compound 32] | > 98 | > 98 | > 98 | > 98 |
| C=CCCCCOC(=O)[C@H](C)NP(=O)(OC[C@H]1O[C@@H](n2ccc(=O)[nH]c2=O)C2(CC2)[C@@H]1O)Oc1ccc(CC=C)cc1OC (some centres unmarked) [Compound 18] | 5.1 | > 98 | > 98 | > 64 |

Reference: US8399429B2, “Uracyl cyclopropyl nucleotides” (Janssen Products, LP, priority 2008, dated 2013)
